Values joined by “and” are separate entries in the source; they are usually repeats but may differ in a detail not shown here. Identical values can stand only once. Like-named read-outs stand apart in the source and are kept apart here.
Tests used:
[1] = in vivo
Excerpt: All toxicities were graded according to the NCI-CTEP criteria, with the exception of peripheral neuropathy which was graded as described previously herein.
Dose limiting toxicity (DLT) was defined as any of the following criteria occurring in two of three patients treated at a given dose level: (1) reversible non-hematologic toxicity of at least grade 3; (2) irreversible non-hematologic toxicity of at least grade 2; or (3) the persistence of a nadir with an absolute granulocyte count of less than 500 cells/mm^3 or platelet count of less than 25,000/mm^3 for five days or more.

ovarian cancer [2] = details: cited from earlier work; for Response rate: taxol without G-CSF
[3] = test system: epithelial ovarian cancer; assay: Phase I taxol dose escalation with G-CSF support: disease response; format: in vivo, human
Experimental: Patients with histologically proven epithelial ovarian cancer with bidimensionally measurable disease were candidates for the study.
All patients received subsequent cycles of therapy on the general medical oncology in-patient ward.
A G-CSF dose of 10 μg/kg/day was used. […] This was determined by checking WBC and platelet counts on a twice weekly basis.
Patients who had normalization of serum CA-125 levels and complete resolution of all assessable disease confirmed at peritoneoscopy Were assessed as having a clinical complete response to therapy (CCR). A partial response (PR) was designated for individuals experiencing a greater than 50% reduction in the sum of the products of the greatest perpendicular diameters of all measurable lesions that lasted at least one month. A minor response (MR) was defined as a greater than 25% but less than 50% reduction in the sum of the products of the greatest perpendicular diameters of all measurable lesions lasting at least one month. Patients with a less than 25% reduction in tumor volume after two cycles of therapy were considered to be nonresponders and were taken off therapy. Patients who experienced greater than 25% reduction in tumor volume and/or a more than 50% reduction in CA-125 level received two cycles beyond maximal response. Patients with CCR received two cycles beyond peritoneoscopy.

[4] = test system: recurrent advanced stage epithelial ovarian cancer; assay: Phase II dose intense taxol with G-CSF support: disease response and survival; format: in vivo, human
Excerpt: A total of 47 patients were included in this study. All patients had recurrent advanced stage epithelial ovarian cancer confirmed on histologic review at the Laboratory of Pathology, National Cancer Institute (NCI). Borderline, mixed, and germ cell histologies were excluded.
A complete response (CR) was defined as patients having a complete resolution of disease as determined by both physical and radiographic examination as well as normalization of CA-125 lasting at least 4 weeks. A partial response (PR) patient was defined as having a greater than 50% reduction in the sum of the products of bidimensional measurements of all sites of disease as determined by both physical and radiographic analysis which lasted at least 4 weeks, and wherein no development of new lesions was observed. A minor response (MR) patient was defined as having greater than 25% but less than 50% reduction in the sum of the products of the perpendicular diameters of all measurable lesions and wherein no new sites of disease were observed. A stable disease (SD) was defined as patients having less than a 25% increase or less than a 25% reduction in sum of the product of the perpendicular diameters of all measurable lesions in response to therapy, without development of new lesions, for at least 4 weeks. Progressive disease (PD) was defined as patients having an increase of at least 25% in the sum of the products of the perpendicular diameters of all measurable lesions and/or the development of new lesions.
CA-125 levels were followed in all patients but were not used to define a patient's response except in one situation.

[5] = Nerve conduction studies in two patients with grade 3 polyneuropathy; details: for MAP Amplitude Percent Decrement / MAP Amplitude Lowest on Taxol: Motor; for SAP Amplitude Percent Decrement / SAP Amplitude Lowest on Taxol: Sensory
Experimental: In two of these patients who developed clinical evidence of neuropathy, the studies were repeated on three occasions in case 1 and once in case 2. In all 12 patients, maximal motor and sensory conduction velocities and response amplitudes were recorded for the median or ulnar nerve in the upper limb and for the peroneal and sural nerves in the lower limb.

ovarian cancer [6] = assay: Published studies of taxol without G-CSF: response rate; format: in vivo, human; details: 33 of 110 patients
Excerpt: This agent is derived from the bark of the Western Yew tree, taxus brevifolia (Chabner, PPO Update, 5 (9), 1-10 (1991); Rowinsky et al., J. Nat'Cancer Inst., 82, 1247-1259 (1990)).

[7] = Totals, all dose levels 170-300 mg/m^2, 14 patients assessable
[8] = Totals, all dose levels 170-300 mg/m^2, 14 patients assessable, listed as taxol
[9] = taxol 170 mg/m^2, 2 patients assessable
[10] = taxol 200 mg/m^2, 3 patients assessable
[11] = taxol 250 mg/m^2, 6 patients assessable
[12] = taxol 300 mg/m^2, 3 patients assessable
[13] = dose intense taxol with G-CSF, 44 assessable patients
[14] = dose intense taxol with G-CSF, 44 assessable patients, listed as taxol
[15] = nineteen patients treated until CR or progression

Q: Which “Dose at which dose limiting toxicity (DLT) was reached” value ([1]; female, human) does the source give for `CC(=O)O[C@H]1C(=O)[C@@]2(C)[C@H]([C@H](OC(=O)c3ccccc3)[C@]3(O)C[C@H](OC(=O)[C@H](O)[C@@H](NC(=O)c4ccccc4)c4ccccc4)C(C)=C1C3(C)C)[C@]1(OC(C)=O)CO[C@@H]1C[C@@H]2O` [Taxol, taxol] here?
A: The value was 300 mg/m2/21 days.

Q: What about the “Duration of granulocytopenia occurring in spite of G-CSF support” value ([1]; female, human) of the same compound?
A: Its value is “less than 5 days”.

Q: And the “Persistence of neurologic symptoms beyond the peak” value ([1]; female, human)?
A: The value was 1 to 2 weeks.

Q: What about the “Persistence of symptoms of grade 3 neuropathy” value ([1]; female, human) of the same compound?
A: Its value is “up to 6 months”.

Q: What about the “Time of nadir heart rate into therapy, range” value ([1]; female, human) of the same compound?
A: The value was 1 to 21 h.

Q: What about the “Mean nadir heart rate (±SEM)” value ([1]; female, human, 1 cycle) of the same compound?
A: The value was 60±11 bpm.

Q: What about the “Nadir heart rate, range” value ([1]; female, human, 1 cycle) of the same compound?
A: Its value is 46-84 bpm.

Q: And the “Number of individuals whose heart rate fell below 60 bpm” value ([1]; female, human, 1 cycle)?
A: Its value is 10.

Q: What about the “Mean nadir heart rate” value ([1]; female, human, 2 cycle) of the same compound?
A: The value was 61±8 bpm.

Q: And the “Nadir heart rate, range” value ([1]; female, human, 2 cycle)?
A: The value was 46-75 bpm.

Q: What about the “Number of individuals whose heart rate fell below 60 bpm” value ([1]; female, human, 2 cycle) of the same compound?
A: Its value is 6.

Q: What about the “Alopecia and grade 1 to 2 myalgias observed” value [1] of the same compound?
A: Its value is “all patients”.

Q: And the “Patients in whom mucositis was observed” value [1]?
A: Its value is “two”.

Q: What about the “Patients with peripheral neuropathy of grade 3” value [1] of the same compound?
A: The value was “three”.

Q: And the Objective response rate (ovarian cancer [2]; "standard" dose of taxol (about 135 mg/m^2/ 21 days))?
A: The Objective response rate was “about 30%”.

Q: What about the Response rate (ovarian cancer [2]; Einzig et al.) of the same compound?
A: The Response rate was 21%.

Q: And the Response rate (ovarian cancer [2]; Gynecologic Oncology Group (Thigpen et al.))?
A: The Response rate was 36%.

Q: What about the Response rate (ovarian cancer [2]; McGuire et al.) of the same compound?
A: Its Response rate is 33%.

Q: And the “Patients with objective responses” value (ovarian cancer [2]; taxol 110 to 200 mg/m^2, cisplatin-sensitive and cisplatin-resistant advanced stage epithelial ovarian cancer)?
A: Its value is “about 30%”.

Q: And the “Patients with an objective response to therapy” value ([3]; Five of 14 assessable patients, all dose levels)?
A: Its value is 36%.

Q: And the “No. CCR (clinical complete response)” value [3, 7]?
A: The value was 1.

Q: What about the “No. MR (minor response)” value [3, 7] of the same compound?
A: The value was 5.

Q: What about the “No. NR (no response; progressive disease on therapy)” value [3, 7] of the same compound?
A: The value was 4.

Q: What about the “No. PR (partial response)” value [3, 7] of the same compound?
A: Its value is 4.

Q: What about the “No. CCR (clinical complete response)” value [3, 8] of the same compound?
A: Its value is “one”.

Q: And the “No. MR (minor response)” value [3, 8]?
A: The value was “Five”.

Q: And the “No. NR (no response; progressive disease on therapy)” value [3, 8]?
A: The value was “Four”.

Q: And the “No. PR (partial response)” value [3, 8]?
A: The value was “four”.

Q: And the “Reductions in tumor mass in patients with a minor response” value ([3]; five patients)?
A: Its value is 30% to 46%.

Q: What about the “Response durations for PR” value ([3]; phase I, individual PR patients) of the same compound?
A: Its value is 30 weeks and ≥ 25 weeks and ≥ 23 weeks and 11 weeks.

Q: And the “Response duration for CCR” value ([3]; phase I, the one CCR patient)?
A: The value was no less than 30 weeks.

Q: What about the “No. NR (no response)” value [3, 9] of the same compound?
A: The value was 1.

Q: And the “No. PR (partial response)” value [3, 9]?
A: The value was 1.

Q: What about the “No. CCR (clinical complete response)” value [3, 10] of the same compound?
A: Its value is 1.

Q: And the “No. MR (minor response)” value [3, 10]?
A: The value was 1.

Q: And the “No. NR (no response)” value [3, 10]?
A: Its value is 1.

Q: And the “No. MR (minor response)” value [3, 11]?
A: Its value is 3.

Q: What about the “No. NR (no response)” value [3, 11] of the same compound?
A: The value was 2.

Q: What about the “No. PR (partial response)” value [3, 11] of the same compound?
A: The value was 2.

Q: What about the “No. MR (minor response)” value [3, 12] of the same compound?
A: Its value is 1.

Q: And the “No. PR (partial response)” value [3, 12]?
A: Its value is 2.

Q: And the “Overall objective response rate” value ([4]; 21/44, 95% CI: 33-63%, taxol 250 mg/m^2/21 days with G-CSF)?
A: Its value is 48%.

Q: What about the “Survival at one year” value ([4]; 95% confidence interval, 25-67%) of the same compound?
A: The value was 45.3%.

Q: And the Median survival time ([4]; Kaplan-Meier, phase II)?
A: Its Median survival time is 11.5 months.

Q: And the “CR, % of Cohort” value [4, 13]?
A: Its value is 14%.

Q: What about the “CR, No. of Patients” value [4, 13] of the same compound?
A: The value was 6.

Q: What about the “MR, % of Cohort” value [4, 13] of the same compound?
A: Its value is 11%.

Q: What about the “MR, No. of Patients” value [4, 13] of the same compound?
A: The value was 5.

Q: And the “NR, % of Cohort” value [4, 13]?
A: Its value is 25%.

Q: What about the “NR, No. of Patients” value [4, 13] of the same compound?
A: Its value is 11.

Q: And the “PR, % of Cohort” value [4, 13]?
A: Its value is 34%.

Q: And the “PR, No. of Patients” value [4, 13]?
A: The value was 15.

Q: What about the “CR, No. of Patients” value [4, 14] of the same compound?
A: Its value is “Six”.

Q: What about the “MR, No. of Patients” value [4, 14] of the same compound?
A: Its value is “five”.

Q: What about the “PR, No. of Patients” value [4, 14] of the same compound?
A: The value was “Fifteen”.

Q: And the “Median number of cycles required to reach an objective response” value [4, 15]?
A: Its value is “four”.

Q: What about the “Number of cycles required to reach an objective response, range” value [4, 15] of the same compound?
A: The value was “two to eight”.

Q: What about the Objective response rate ([4]; taxol about 250 mg/m^2/ 21 days) of the same compound?
A: The Objective response rate was “about 50%”.

Q: And the “Increase in the response rate versus standard dose” value ([4]; taxol about 250 mg/m^2/ 21 days vs standard dose)?
A: Its value is 67%.

Q: What about the “MAP Amplitude Percent Decrement” value ([5]; Median nerve, case 2) of the same compound?
A: The value was “None”.

Q: And the “MAP Amplitude Lowest on Taxol” value ([5]; Median nerve, case 2, control 10.5 mV)?
A: The value was 10.8 mV.

Q: And the “MAP Amplitude Percent Decrement” value ([5]; Peroneal nerve, case 1)?
A: Its value is 49%.

Q: And the “MAP Amplitude Lowest on Taxol” value ([5]; Peroneal nerve, case 1, control 3.9 mV)?
A: The value was 1.9 mV.

Q: What about the “MAP Amplitude Percent Decrement” value ([5]; Peroneal nerve, case 2) of the same compound?
A: Its value is “None”.

Q: What about the “MAP Amplitude Lowest on Taxol” value ([5]; Peroneal nerve, case 2, control 2.7 mV) of the same compound?
A: Its value is 2.7 mV.

Q: What about the “MAP Amplitude Percent Decrement” value ([5]; Ulnar nerve, case 1) of the same compound?
A: The value was “None”.

Q: And the “MAP Amplitude Lowest on Taxol” value ([5]; Ulnar nerve, case 1, control 6.9 mV)?
A: The value was 7.1 mV.

Q: What about the “SAP Amplitude Percent Decrement” value ([5]; Median nerve, case 2) of the same compound?
A: Its value is 13%.

Q: What about the “SAP Amplitude Lowest on Taxol” value ([5]; Median nerve, case 2, control 69 μV) of the same compound?
A: Its value is 60 μV.

Q: What about the “SAP Amplitude Percent Decrement” value ([5]; Sural nerve, case 1) of the same compound?
A: Its value is 75%.

Q: What about the “SAP Amplitude Lowest on Taxol” value ([5]; Sural nerve, case 1, control 8 μV) of the same compound?
A: The value was 2 μV.

Q: And the “SAP Amplitude Percent Decrement” value ([5]; Sural nerve, case 2)?
A: Its value is 44%.

Q: What about the “SAP Amplitude Lowest on Taxol” value ([5]; Sural nerve, case 2, control 32 μV) of the same compound?
A: Its value is 18 μV.

Q: And the “SAP Amplitude Percent Decrement” value ([5]; Ulnar nerve, case 1)?
A: The value was 62%.

Q: What about the “SAP Amplitude Lowest on Taxol” value ([5]; Ulnar nerve, case 1, control 19 μV) of the same compound?
A: The value was 6 μV.

Q: What about the “Response rate, three combined studies” value (ovarian cancer [6]) of the same compound?
A: Its value is 30%.

— patent publication USRE38424E1 (The United States of America as represented by the …, priority 1994, dated 2004)
